# Measurements taken from patent publication EP0563386A1, “ANTICANCER COMPOSITION AND COMPOUND” (NIPPON SHINYAKU COMPANY, LIMITED, priority 1990, dated 1992).
# Key:
# [1] = Anticancer effect in unspecified in vitro test systems (Test Example 6); details: in vitro test systems which the inventor used, not described
# Colon 26 tumor cells [2] = experiment: Colon 26 percent tumor inhibition, alone and combined with 5-FU derivatives (Test Example 3); assay type: in vivo, BALB/c mice; details: for % Inhibition, Combination: test compound 10 mg/kg orally once daily concurrently with 5-FU derivatives (90 mg/kg total); for % Inhibition, Single drug: test compound 10 mg/kg orally once daily, 5-FU derivatives 30 mg/kg each (90 mg/kg total) orally
# Procedure: The additive effect of 5-FU derivative and the compound of this invention was tested in terms of percent tumor inhibition. Colon 26 tumor cells were transplanted subcutaneously to groups of 8 BALB/c mice and the treatment was instituted when the tumor volume amounted to about 50-100 mm³. Each of the test com pound was suspended in 0.5% methylcellulose and admin istered orally in a dose of 10 mg/kg once daily for 14 days in (1) and for 21 days in (2) and (3). As 5-FU derivatives Mifurol™, Furtulon™ and Sunfural™ were used, and all the drugs were administered orally in a dose of 30mg/kg, or 90 mg/kg as total dose of three drugs. The combination group received these 5-FU derivatives concurrently with the test drug. The single drug group received each test compound alone orally.
# MDCK cells = experiment: Inhibition of uptake of 5-FU in MDCK cells (Test Example 4); assay type: cell-based; details: Canis lupus familiaris, 3H-5FU uptake versus control, harvest time (1, 3 or 5 hours) not given; for inhibition at 100 µM: 10⁻⁴ M; for inhibition at 10 µM: 10⁻⁵ M; for inhibition at 1 µM: 10⁻⁶ M
# Procedure: In the assay of inhibitory activity against the 5-FU uptake of MDCK cells, the anticancer adjuvant activity of the test compound can be estimated based on the inhibitory effect on the uptake of a known anticancer drug.
# The inhibitory effect of the compound of this invention on the uptake of 5-FU in MDCK cells was investigated. MDCK cells were seeded on a 24-well culture plate. When the cells became confluent, the test compound (10⁻⁶ - 10⁻⁴ M) and 3H-5FU ([…]) were simultaneously added to the medium and 1, 3 and 5 hours later, cells were harvested to determine the amount of 3H-5FU taken up with a liquid scintillation counter. The percent inhibition to control was calculated.
# Colon 26 tumor cells [3] = experiment: Colon 26 life-prolonging effect / survival (Test Example 5); assay type: in vivo, BALB/c mice; details: 10 mg/kg orally once daily; for life-prolonging effect: Test (2): groups of six, eighty percent of control group died on day 63, Fig. 4
# Procedure: Furthermore, in the assay of growth inhibitory activity against Colon 26, the life-prolonging effect can be evaluated from the mortality of animals during a period of 4 to 6 weeks after administration.
# • (1) Colon 26 tumor cells were transplanted subcutane ously in groups of six BALB/c mice and the treatment was instituted when the tumor volume amounted to about 100 - 200 mm³. The test drug suspended in 0.5% methyl cellulose was administered orally in a dose of 10 mg/kg once daily during the test period. All animals in the control group (no test drug was contained at all) died on day 34 and all animals given 5-FU derivative died on day 40, whereas none of the animals given the compound of this invention (compound No. 169) died even after day 40. The life-prolonging effect of the compound of this invention is clear. • (2) As in the above (1), Colon 26 tumor cells were transplanted subcutaneously in groups of six BALB/c mice and treatment was instituted when the tumor volume amounted to about 100-200 mm³. The test drug suspended in 0.5% methylcellulose was administered orally in a dose of 10 mg/kg once daily during the test period.
# The open circle stands for control, the open square for the F-5U derivative group and the closed square for the group given the compound of this invention. The survival rate (%) is plotted on the vertical axis and the number of days after drug administration on the horizontal axis.
# The open circle stands for the control group, the open square for Compound No. 175 group, the closed circle for Compound No. 210 group, the open triangle for Compound No. 213 group and the closed square for Compound 219 group. The survival rate (%) is plotted on the vertical axis and the number of days after drug administration on the horizontal axis.
SMILES,inhibition at 100 µM (MDCK cells),inhibition at 10 µM (MDCK cells),inhibition at 1 µM (MDCK cells),other results
"CCONc1nc(N)nc(-c2cc(Cl)ccc2Cl)n1 [compound 183, 2-Amino-4-ethoxyamino-6-(2,5-dichlorophenyl)-1,3,5-triazine]",–,–,–,anticancer effect in vitro [1]: strong anticancer effect
"Nc1nc(N)nc(-c2cc(Br)ccc2F)n1 [compound 215, 2,4-Diamino-6-(5-bromo-2-fluorophenyl)-1,3,5-triazine]",–,–,–,anticancer effect in vitro [1]: strong anticancer effect
"Nc1nc(NC(=O)c2cccnc2)nc(-c2ccc(Cl)c(Cl)c2)n1 [Compound No. 263, 2-Amino-4-nicotinoylamino-6-(3,4-dichlorophenyl)-1,3,5-triazine]",–,–,–,"% Inhibition, Combination (Colon 26 tumor cells [2]; Test (1): 14 days): 47.9%; % Inhibition, Single drug (Colon 26 tumor cells [2]; Test (1): 14 days): 7.0%; % Inhibition, Combination (Colon 26 tumor cells [2]; Test (3): 21 days): 52.0%; % Inhibition, Single drug (Colon 26 tumor cells [2]; Test (3): 21 days): 8.9%"
"Nc1nc(N)nc(-c2ccc(Br)c(Br)c2)n1 [Compound No. 405, 2,4-Diamino-6-(3,4-dibromophenyl)-1,3,5-triazine]",62%,59%,–,–
"Nc1nc(N)nc(-c2cccc(Cl)c2)n1 [Compound No. 159, 2,4-Diamino-6-(3-chlorophenyl)-1,3,5-triazine]",–,–,–,"% Inhibition, Combination (Colon 26 tumor cells [2]; Test (1): 14 days): 50.9%; % Inhibition, Single drug (Colon 26 tumor cells [2]; Test (1): 14 days): 2.0%"
"Nc1nc(N)nc(-c2ccc(Br)c(Cl)c2)n1 [Compound No. 219, 2,4-Diamino-6-(4-bromo-3-chlorophenyl)-1,3,5-triazine]",60%,69%,86%,"% Inhibition, Combination (Colon 26 tumor cells [2]; Test (2): 21 days): 75.5%; % Inhibition, Single drug (Colon 26 tumor cells [2]; Test (2): 21 days): 10.0%; life-prolonging effect (Colon 26 tumor cells [3]): definite life-prolonging effect"
"COc1ccccc1-c1nc(N)nc(N)n1 [compound 255, 2,4-Diamino-6-(2-methoxyphenyl)-1,3,5-triazine]",–,–,–,anticancer effect in vitro [1]: strong anticancer effect
"Nc1nc(N)nc(-c2ccc(Cl)c(Cl)c2)n1 [Compound No. 156, 2,4-Diamino-6-(3,4-dichlorophenyl)-1,3,5-triazine]",56%,73%,85%,–
"Nc1nc(N)nc(-c2ccccc2NCc2ccccc2)n1 [Compound No. 356, 2,4-Diamino-6-(2-benzylaminophenyl)-1,3,5-triazine]",51%,73%,91%,–
"Nc1nc(NC(=O)c2cccnc2)nc(-c2cc(Cl)ccc2Cl)n1 [Compound No. 262, 2-Amino-4-nicotinoylamino-6-(2,5-dichlorophenyl)-1,3,5-triazine]",46%,58%,–,"% Inhibition, Combination (Colon 26 tumor cells [2]; Test (3): 21 days): 48.8%; % Inhibition, Single drug (Colon 26 tumor cells [2]; Test (3): 21 days): 19.2%"
"Nc1nc(N)nc(-c2ccc(Cl)cc2Br)n1 [Compound No. 210, 2,4-Diamino-6-(2-bromo-4-chlorophenyl)-1,3,5-triazine]",–,–,–,"% Inhibition, Combination (Colon 26 tumor cells [2]; Test (2): 21 days): 86.0%; life-prolonging effect (Colon 26 tumor cells [3]): definite life-prolonging effect"
"COc1ccc(-c2nc(N)nc(NC(=O)c3cccnc3)n2)cc1OC [Compound No. 264, 2-Amino-4-nicotinoylamino-6-(3,4-dimethoxyphenyl)-1,3,5-triazine]",56%,62%,89%,–
"Nc1nc(NC(=O)c2ccccc2)nc(-c2ccccc2)n1 [Compound No. 103, 2-Amino-4-benzoylamino-6-phenyl-1,3,5-triazine]",50%,58%,–,–
"Cc1ccc(Cl)cc1-c1nc(N)nc(N)n1 [compound 380, 2,4-Diamino-6-(5-chloro-2-methylphenyl)-1,3,5-triazine]",–,–,–,anticancer effect in vitro [1]: strong anticancer effect
"Nc1nc(N)nc(-c2cc([N+](=O)[O-])ccc2Cl)n1 [compound 374, 2,4-Diamino-6-(2-chloro-5-nitrophenyl)-1,3,5-triazine]",–,–,–,anticancer effect in vitro [1]: strong anticancer effect
"O=C(Nc1nc(NC(=O)c2cccnc2)nc(-c2ccccc2)n1)c1cccnc1 [Compound No. 102, 2,4-Dinicotinoylamino-6-phenyl-1,3,5-triazine]",62%,59%,86%,–
"Nc1nc(N)nc(-c2ccccc2)n1 [compound 100, 2,4-Diamino-6-phenyl-1,3,5-triazine]",–,–,–,anticancer effect in vitro [1]: strong anticancer effect
"COc1ccc(-c2nc(N)nc(N)n2)cc1OC [Compound No. 259, 2,4-Diamino-6-(3,4-dimethoxyphenyl)-1,3,5-triazine]",62%,66%,77%,"% Inhibition, Combination (Colon 26 tumor cells [2]; Test (1): 14 days): 45.6%; % Inhibition, Single drug (Colon 26 tumor cells [2]; Test (1): 14 days): 9.2%"
"Nc1nc(N)nc(-c2cc(Br)ccc2Cl)n1 [Compound No. 213, 2,4-Diamino-6-(5-bromo-2-chlorophenyl)-1,3,5-triazine]",–,–,–,"% Inhibition, Combination (Colon 26 tumor cells [2]; Test (2): 21 days): 70.4%; life-prolonging effect (Colon 26 tumor cells [3]): definite life-prolonging effect"
"COCCOc1ccc(Cl)cc1-c1nc(N)nc(N)n1 [Compound No. 221, 2,4-Diamino-6-[5-chloro-2-(2-methoxyethoxy)phenyl]-1,3,5-triazine]",–,–,–,"% Inhibition, Combination (Colon 26 tumor cells [2]; Test (3): 21 days): 76.5%; % Inhibition, Single drug (Colon 26 tumor cells [2]; Test (3): 21 days): 18.1%"
"Nc1nc(N)[n+]([O-])c(-c2cc(Cl)ccc2Cl)n1 [compound 1001, 2,4-Diamino-6-(2,5-dichlorophenyl)-1,3,5-triazine N-oxide]",–,–,–,anticancer effect in vitro [1]: strong anticancer effect
"Nc1nc(N)nc(-c2cc(Cl)ccc2Cl)n1 [Compound No. 169, 2,4-Diamino-6-(2,5-dichlorophenyl)-1,3,5-triazine]",–,–,–,"% Inhibition, Combination (Colon 26 tumor cells [2]; Test (1): 14 days): 54.6%; % Inhibition, Single drug (Colon 26 tumor cells [2]; Test (1): 14 days): 18.0%; % Inhibition, Combination (Colon 26 tumor cells [2]; Test (2): 21 days): 84.1%; % Inhibition, Single drug (Colon 26 tumor cells [2]; Test (2): 21 days): 11.6%; % Inhibition, Combination (Colon 26 tumor cells [2]; Test (3): 21 days): 49.9%; % Inhibition, Single drug (Colon 26 tumor cells [2]; Test (3): 21 days): 10.7%; survival: day on which the animals died (Colon 26 tumor cells [3]; Test (1): groups of six, control group all died on day 34, Fig. 3): > 40 days"
"CC(=O)c1cccc(-c2nc(N)nc(N)n2)c1 [Compound No. 347, 2,4-Diamino-6-(3-acetylphenyl)-1,3,5-triazine]",49%,61%,–,–
"Nc1cccc(-c2nc(N)nc(N)n2)c1 [Compound No. 352, 2,4-Diamino-6-(3-aminophenyl)-1,3,5-triazine]",64%,69%,–,–
"O=C(Nc1nc(NC(=O)c2ccccc2)nc(-c2ccccc2)n1)c1ccccc1 [Compound No. 104, 2,4-Dibenzoylamino-6-phenyl-1,3,5-triazine]",44%,50%,60%,–
"Nc1nc(N)nc(-c2ccc(OCc3ccccc3)cc2)n1 [Compound No. 345, 2,4-Diamino-6-(4-benzyloxyphenyl)-1,3,5-triazine]",70%,63%,63%,–
